SMILES strings stand for the structures.

The assay concerns the target T1, T cell α4β7 integrin (Homo sapiens, UniProt P13612+P26010).
T1 construct: Blood samples were obtained from healthy volunteers' blood donation; endogenous in cells; host or cells: CD4-positive T cells in whole blood of healthy human volunteers
T1 sequence (P13612 34-1032): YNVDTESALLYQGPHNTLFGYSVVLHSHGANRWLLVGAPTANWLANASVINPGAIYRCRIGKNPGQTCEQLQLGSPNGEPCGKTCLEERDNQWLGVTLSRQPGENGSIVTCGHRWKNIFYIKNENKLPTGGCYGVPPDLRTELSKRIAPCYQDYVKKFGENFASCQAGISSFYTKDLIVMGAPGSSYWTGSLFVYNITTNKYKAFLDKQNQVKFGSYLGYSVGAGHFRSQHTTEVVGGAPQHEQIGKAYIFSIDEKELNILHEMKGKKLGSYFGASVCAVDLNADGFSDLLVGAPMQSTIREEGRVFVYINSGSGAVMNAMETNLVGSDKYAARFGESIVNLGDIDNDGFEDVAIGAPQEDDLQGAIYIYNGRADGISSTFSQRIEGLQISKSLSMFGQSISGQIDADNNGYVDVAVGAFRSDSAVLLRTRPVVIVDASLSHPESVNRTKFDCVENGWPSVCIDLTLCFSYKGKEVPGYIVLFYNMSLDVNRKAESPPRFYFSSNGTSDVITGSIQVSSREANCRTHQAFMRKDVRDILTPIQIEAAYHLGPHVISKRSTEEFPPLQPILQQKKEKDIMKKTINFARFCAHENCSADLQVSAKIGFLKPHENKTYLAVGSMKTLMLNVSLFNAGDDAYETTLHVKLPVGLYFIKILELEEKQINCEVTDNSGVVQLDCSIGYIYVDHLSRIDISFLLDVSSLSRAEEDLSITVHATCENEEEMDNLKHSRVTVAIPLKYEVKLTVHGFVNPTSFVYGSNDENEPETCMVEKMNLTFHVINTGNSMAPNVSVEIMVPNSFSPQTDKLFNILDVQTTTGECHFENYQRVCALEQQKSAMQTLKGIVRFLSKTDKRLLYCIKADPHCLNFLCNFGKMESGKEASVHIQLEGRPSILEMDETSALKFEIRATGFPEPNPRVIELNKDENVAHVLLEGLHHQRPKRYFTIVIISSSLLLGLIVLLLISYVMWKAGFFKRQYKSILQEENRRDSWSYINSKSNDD
T1 sequence (P26010 20-798): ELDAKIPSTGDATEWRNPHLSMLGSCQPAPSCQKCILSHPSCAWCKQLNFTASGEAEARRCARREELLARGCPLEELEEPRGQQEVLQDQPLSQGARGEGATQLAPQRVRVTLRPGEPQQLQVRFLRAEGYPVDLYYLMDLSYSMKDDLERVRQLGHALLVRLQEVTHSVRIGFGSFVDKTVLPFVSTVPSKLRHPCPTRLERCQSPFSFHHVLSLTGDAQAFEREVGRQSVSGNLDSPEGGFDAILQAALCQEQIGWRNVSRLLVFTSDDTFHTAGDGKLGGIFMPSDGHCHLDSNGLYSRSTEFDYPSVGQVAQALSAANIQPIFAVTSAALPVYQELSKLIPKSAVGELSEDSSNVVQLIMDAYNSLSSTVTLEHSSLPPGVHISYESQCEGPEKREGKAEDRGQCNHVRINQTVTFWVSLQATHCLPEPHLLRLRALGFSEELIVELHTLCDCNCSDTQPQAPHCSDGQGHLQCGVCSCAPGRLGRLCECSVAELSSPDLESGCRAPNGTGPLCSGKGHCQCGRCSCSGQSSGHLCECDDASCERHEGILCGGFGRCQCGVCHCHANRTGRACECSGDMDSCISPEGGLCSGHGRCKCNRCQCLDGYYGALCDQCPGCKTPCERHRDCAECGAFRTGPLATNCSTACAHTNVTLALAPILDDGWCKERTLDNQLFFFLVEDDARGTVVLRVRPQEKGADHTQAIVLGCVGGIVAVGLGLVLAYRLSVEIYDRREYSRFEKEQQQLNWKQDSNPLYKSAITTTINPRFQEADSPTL
Kind of assay: Mouse MAdCAM-1/α4β7 integrin binding inhibitory activity evaluation test in whole human blood. As to conditions: recombinant mouse MAdCAM-1/Fc, CD4 positive cells, flow cytometry. It counts as cell-based. The procedure:
(4) Mouse MAdCAM-1/α4β7 Integrin Binding Inhibitory Activity Evaluation Test in Whole Human Blood
Each test substance was measured in terms of the binding inhibitory activity of T cell α4β7 integrin and MAdCAM-1 in human whole blood. Blood samples were obtained from healthy volunteers' blood donation.
A 4 mM MnCl2 solution and each of dilutions of various test substances were added to human whole blood, followed by incubation for 10 minutes. Recombinant mouse MAdCAM-1/Fc (R&D Systems, Inc.) at 10 μg/mL was added to the resultant, and each test sample taken in a total amount of 50 μL was incubated for 30 minutes. Then, 950 μL of Lyse/Fix (BD Biosciences) was added to allow hemolysis and fixation to proceed at 37° C. for 10 minutes. After centrifugation for 5 minutes, the supernatant was removed and 600 μL of a RPMI-1640 medium supplemented with 10% inactivated fetal bovine serum (hereinafter referred to as the medium) was added, followed by centrifugation for 5 minutes, removal of the supernatant, and then washing. After the test sample was washed again with the medium, Rat Anti-Mouse MAdCAM-1 antibody (Southern Biotech) at 0.625 μg/mL was added, followed by incubation for 30 minutes or more. After the test sample was washed with the medium, 50 μg/mL Goat Anti-Rat IgG (H+L) Antibody, FITC (Life Technologies) was added, followed by incubation for 30 minutes or more. After the test sample was washed with the medium, 10 μg/mL PE Rat Anti-Mouse CD4 (BD Pharmigen) was added, followed by incubation for 30 minutes or more. After the test sample was washed with the medium, a ratio of MAdCAM-1 positive cells to CD4 positive cells was measured by using flow cytometry.
From independent test results using different blood samples of two to three persons, a MAdCAM-1 binding inhibiting rate of each test substance at each of various concentrations was obtained under the setting in which, among wells containing no test substances, a well containing no ligand was scored at 100% inhibition and a well containing ligand was scored at 0% inhibition, and then a concentration IC50 which brought about 50% binding inhibition was calculated.

As for `Cn1c(=O)n(-c2ccc(C[C@H](NC(=O)c3cc(F)c(NS(=O)(=O)c4ccc(NC(=O)C(C)(C)C)cc4)cc3F)C(=O)O)cc2)c(=O)c2ccncc21` [Compound A1, (2S)-2-[[4-[[4-(2,2-dimethylpropanoylamino)phenyl]sulfonylamino]-2,5-difluoro-benzoyl]amino]-3-[4-(1-methyl-2,4-dioxo-pyrido[3,4-d]pyrimidin-3-yl)phenyl]propanoic acid], the IC50 was 3.9 nM.

For the compound `Cc1c(C)n(C)c(=O)n(-c2ccc(C[C@H](NC(=O)c3cc(F)c(NS(=O)(=O)c4ccc(NC(=O)C(C)(C)C)cc4)cc3F)C(=O)O)cc2)c1=O` [Compound A8], the IC50 was 1.3 nM.

For the compound `Cn1c(=O)n(-c2ccc(C[C@H](NC(=O)c3cc(F)c(NS(=O)(=O)c4ccc(NC(=O)C(C)(C)C)cc4)cc3F)C(=O)O)cn2)c(=O)c2ccncc21` [Compound A26], the IC50 amounted to 2.4 nM.

With `Cc1c(C)n(C)c(=O)n(-c2ccc(C[C@H](NC(=O)c3cc(F)c(NS(=O)(=O)c4ccc(NC(=O)C(C)(C)C)cc4)cc3F)C(=O)O)cn2)c1=O` [Compound A28], the IC50 worked out at 1.2 nM.

As to `Cc1c(C)n(C)c(=O)n(-c2ccc(C[C@H](NC(=O)c3cc(F)c(NS(=O)(=O)c4ccc(NC(=O)C(C)(C)C)cn4)cc3F)C(=O)O)cn2)c1=O` [Compound A32], the IC50 worked out at 1.9 nM.

In the case of `Cc1cn(C)c(=O)n(-c2ccc(C[C@H](NC(=O)c3cc(F)c(NS(=O)(=O)c4ccc(NC(=O)C(C)(C)C)cc4)cc3F)C(=O)O)cc2)c1=O` [Compound A37], the IC50 was 3.3 nM.

For `Cn1c2c(c(=O)n(-c3ccc(C[C@H](NC(=O)c4cc(F)c(NS(=O)(=O)c5ccc(NC(=O)C(C)(C)C)cc5)cc4F)C(=O)O)cn3)c1=O)CCOC2` [Compound A40], the IC50 was found to be 2.3 nM.

As to `Cn1ccc(=O)n(-c2ccc(C[C@H](NC(=O)c3cc(F)c(NS(=O)(=O)c4ccc(NC(=O)C(C)(C)C)cc4)cc3F)C(=O)O)cc2)c1=O` [Compound A42], the IC50 was determined as 2.2 nM.

Turning to `Cn1c2c(c(=O)n(-c3ccc(C[C@H](NC(=O)c4cc(F)c(NS(=O)(=O)c5ccc(NC(=O)C(C)(C)C)cc5)cc4F)C(=O)O)cn3)c1=O)COCC2` [Compound A44], the IC50 is 1 nM.

For `Cc1cc(=O)n(-c2ccc(C[C@H](NC(=O)c3cc(F)c(NS(=O)(=O)c4ccc(NC(=O)C(C)(C)C)cc4)cc3F)C(=O)O)cn2)c(=O)n1C` [Compound A45], the IC50 is 1.3 nM.

As to `Cc1cc(=O)n(-c2ccc(C[C@H](NC(=O)c3cc(F)c(NS(=O)(=O)c4ccc(NC(=O)C(C)(C)C)cc4)cc3F)C(=O)O)cc2)c(=O)n1C` [Compound A46], the IC50 is 1.6 nM.

In the case of `Cn1ccc(=O)n(-c2ccc(C[C@H](NC(=O)c3cc(F)c(NS(=O)(=O)c4ccc(NC(=O)C(C)(C)C)cc4)cc3F)C(=O)O)cn2)c1=O` [Compound A53], the IC50 turned out to be 1.8 nM.

Regarding `Cc1cn(C)c(=O)n(-c2ccc(C[C@H](NC(=O)c3cc(F)c(NS(=O)(=O)c4ccc(NC(=O)C(C)(C)C)cc4)cc3F)C(=O)O)cn2)c1=O` [Compound A54], the IC50 is 1.3 nM.

The values are drawn from US10562898B2, “Substituted benzenesulfonamides as inhibitors of alpha-4 beta-7 integrin activity” (EA PHARMA CO., LTD., priority 2016, dated 2020).
